# Activity calls are given as the source filed them.
# Experiments:
# cells = assay type: functional
# [1] = target: Dual specificity tyrosine-phosphorylation-regulated kinase 1A (Rattus norvegicus, UniProt Q63470); assay type: biochemical, Homo sapiens
# Coagulation factor XII = target: T1, Coagulation factor XII (Homo sapiens, UniProt P00748); assay type: functional;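 also: activated factor XIIa alpha cleaving a fluorogenic AMC peptide substrate; inhibitor potency from loss of enzyme activity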
# T1 sequence (P00748 whole entry): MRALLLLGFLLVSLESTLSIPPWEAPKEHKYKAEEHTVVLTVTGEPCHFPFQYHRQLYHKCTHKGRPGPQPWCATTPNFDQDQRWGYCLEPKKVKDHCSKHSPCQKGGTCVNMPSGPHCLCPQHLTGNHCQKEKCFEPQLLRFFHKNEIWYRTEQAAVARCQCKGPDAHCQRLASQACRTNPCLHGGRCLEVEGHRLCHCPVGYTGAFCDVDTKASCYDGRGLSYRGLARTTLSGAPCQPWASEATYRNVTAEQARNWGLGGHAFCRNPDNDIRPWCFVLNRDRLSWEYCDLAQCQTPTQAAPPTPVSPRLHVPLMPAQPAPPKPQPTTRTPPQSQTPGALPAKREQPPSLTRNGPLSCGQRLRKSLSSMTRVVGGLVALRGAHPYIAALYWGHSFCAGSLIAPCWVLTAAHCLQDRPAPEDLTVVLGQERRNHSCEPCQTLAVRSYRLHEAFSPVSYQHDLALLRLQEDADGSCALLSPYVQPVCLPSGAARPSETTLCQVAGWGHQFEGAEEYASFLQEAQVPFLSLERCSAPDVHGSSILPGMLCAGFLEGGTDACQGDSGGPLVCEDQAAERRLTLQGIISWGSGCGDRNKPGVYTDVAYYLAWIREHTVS
# [2] = target: T2, Ubiquitin-conjugating enzyme E2 N (Homo sapiens, UniProt P61088); assay type: functional
# T2 sequence (P61088 whole entry): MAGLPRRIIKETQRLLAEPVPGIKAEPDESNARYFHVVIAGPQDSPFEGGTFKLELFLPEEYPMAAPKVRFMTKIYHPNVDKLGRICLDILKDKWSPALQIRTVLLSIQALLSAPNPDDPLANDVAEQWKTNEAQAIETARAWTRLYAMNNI
# Bcl-2-related protein A1 = target: T3, Bcl-2-related protein A1 (Mus musculus, UniProt Q07440); assay type: functional;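 also: confirmatory dose–response counterscreen on Bfl-1, used to check hits from a UBC13 polyubiquitin inhibitor campaign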
# T3 sequence (Q07440 whole entry): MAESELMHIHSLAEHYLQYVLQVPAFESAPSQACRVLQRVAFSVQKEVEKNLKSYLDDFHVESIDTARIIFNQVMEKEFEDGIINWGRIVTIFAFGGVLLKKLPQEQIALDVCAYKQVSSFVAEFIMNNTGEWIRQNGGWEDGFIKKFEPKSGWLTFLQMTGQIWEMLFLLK
# [3] = target: T2, Ubiquitin-conjugating enzyme E2 N; assay type: functional; remark: listed apart in the source
# Cysteine protease ATG4B = target: T4, Cysteine protease ATG4B (Homo sapiens, UniProt Q9Y4P1); assay type: functional;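 also: Fluorescence-based dose-response confirmation assay measuring inhibition of ATG4B activity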
# T4 sequence (Q9Y4P1 whole entry): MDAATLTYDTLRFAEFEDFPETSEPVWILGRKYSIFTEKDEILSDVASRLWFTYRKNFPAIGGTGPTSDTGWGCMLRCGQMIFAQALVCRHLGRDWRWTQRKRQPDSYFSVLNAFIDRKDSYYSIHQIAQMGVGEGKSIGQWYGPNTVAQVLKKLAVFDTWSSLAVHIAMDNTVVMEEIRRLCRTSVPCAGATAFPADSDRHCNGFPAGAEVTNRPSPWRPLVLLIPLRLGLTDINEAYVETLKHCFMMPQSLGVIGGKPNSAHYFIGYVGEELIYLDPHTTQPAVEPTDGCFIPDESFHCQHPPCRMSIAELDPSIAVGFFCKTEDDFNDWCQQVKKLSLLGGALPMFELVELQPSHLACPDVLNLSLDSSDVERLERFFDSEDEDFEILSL
# Phospholipase A2 = Phospholipase A2 (Homo sapiens, UniProt P04054); assay type: functional;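 also: confirmatory dose-response counterscreen on phospholipase A2, testing hits that came from an ultra-high-throughput screen for ATG4B inhibitors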
# Sequence of Phospholipase A2 (P04054 whole entry): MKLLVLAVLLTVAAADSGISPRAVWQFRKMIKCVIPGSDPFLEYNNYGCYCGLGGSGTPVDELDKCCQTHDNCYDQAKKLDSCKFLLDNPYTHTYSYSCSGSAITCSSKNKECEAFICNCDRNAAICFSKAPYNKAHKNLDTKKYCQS
# [4] = target: T5, Corticotropin-releasing factor receptor 2/Corticotropin-releasing factor-binding protein (Homo sapiens, UniProt P24387+Q13324); test: activators of CRF receptor 2 with binding protein – uHTS hits, confirmation (AID 602473); assay type: functional; conditions: read-out: EC50_Mean
# T5 sequence (Q13324 whole entry): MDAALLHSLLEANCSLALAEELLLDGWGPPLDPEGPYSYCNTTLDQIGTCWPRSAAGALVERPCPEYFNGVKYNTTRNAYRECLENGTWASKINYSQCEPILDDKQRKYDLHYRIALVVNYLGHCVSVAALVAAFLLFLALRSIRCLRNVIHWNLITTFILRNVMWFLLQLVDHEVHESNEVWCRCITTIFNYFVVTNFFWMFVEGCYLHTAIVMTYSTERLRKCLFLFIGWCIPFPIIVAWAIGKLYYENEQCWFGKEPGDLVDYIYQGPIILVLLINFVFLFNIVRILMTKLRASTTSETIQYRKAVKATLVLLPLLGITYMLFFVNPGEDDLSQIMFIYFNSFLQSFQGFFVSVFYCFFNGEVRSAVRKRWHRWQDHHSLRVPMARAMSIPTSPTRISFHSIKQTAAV
# T5 sequence (P24387 whole entry): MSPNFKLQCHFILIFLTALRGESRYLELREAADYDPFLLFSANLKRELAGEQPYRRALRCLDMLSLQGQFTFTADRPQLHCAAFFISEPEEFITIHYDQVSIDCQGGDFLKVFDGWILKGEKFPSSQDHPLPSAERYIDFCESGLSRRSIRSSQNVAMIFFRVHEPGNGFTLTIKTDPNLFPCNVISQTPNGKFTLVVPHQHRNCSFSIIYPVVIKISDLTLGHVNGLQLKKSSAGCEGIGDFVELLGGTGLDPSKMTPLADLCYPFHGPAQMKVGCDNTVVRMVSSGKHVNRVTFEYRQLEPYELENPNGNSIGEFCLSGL
# [5] = target: T6, Endoribonuclease toxin MazF (Escherichia coli K-12, UniProt P0AE70); test: substrate-only fluorescence increase artefacts – biochemical, single-stranded RNase substrate, counter-screen for MazEF activator project, dose response (AID 588502); assay type: functional
# T6 sequence (P0AE70 whole entry): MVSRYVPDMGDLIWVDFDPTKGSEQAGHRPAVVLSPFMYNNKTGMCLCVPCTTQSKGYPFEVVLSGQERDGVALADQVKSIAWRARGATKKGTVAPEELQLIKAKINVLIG
# [6] = target: T6, Endoribonuclease toxin MazF; test: activation of MazEF endoribonuclease cleavage – biochemical, fluorescence, single-stranded RNA substrate, uHTS hits, dose response (AID 588481); assay type: functional
# Cytochrome P450 2D6 [7] = target: T7, Cytochrome P450 2D6 (Homo sapiens, UniProt P10635);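 also: CYP2D6 member of a cytochrome P450 panel assay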
# T7 sequence (P10635 whole entry): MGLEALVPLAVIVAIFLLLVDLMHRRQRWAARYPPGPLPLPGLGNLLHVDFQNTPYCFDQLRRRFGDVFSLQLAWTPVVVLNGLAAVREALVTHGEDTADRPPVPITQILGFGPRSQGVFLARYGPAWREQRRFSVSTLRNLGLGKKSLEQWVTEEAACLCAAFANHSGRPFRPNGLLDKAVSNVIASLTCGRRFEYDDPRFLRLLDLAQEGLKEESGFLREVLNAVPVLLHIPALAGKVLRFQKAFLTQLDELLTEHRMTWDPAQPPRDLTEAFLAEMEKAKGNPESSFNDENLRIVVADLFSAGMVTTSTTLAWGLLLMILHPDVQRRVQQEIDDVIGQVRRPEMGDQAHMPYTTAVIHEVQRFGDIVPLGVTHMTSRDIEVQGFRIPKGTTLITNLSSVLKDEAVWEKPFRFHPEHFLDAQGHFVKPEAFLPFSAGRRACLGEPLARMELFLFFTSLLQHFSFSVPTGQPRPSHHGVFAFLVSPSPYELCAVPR
# Cytochrome P450 2C19 = Cytochrome P450 2C19 (Homo sapiens, UniProt P33261); test: Cytochrome panel assay with activity outcomes. Panel member name: p450-cyp2c19 Compounds with AC50 equal or less than 10 uM are considered active; assay type: functional
# Sequence of Cytochrome P450 2C19 (P33261 whole entry): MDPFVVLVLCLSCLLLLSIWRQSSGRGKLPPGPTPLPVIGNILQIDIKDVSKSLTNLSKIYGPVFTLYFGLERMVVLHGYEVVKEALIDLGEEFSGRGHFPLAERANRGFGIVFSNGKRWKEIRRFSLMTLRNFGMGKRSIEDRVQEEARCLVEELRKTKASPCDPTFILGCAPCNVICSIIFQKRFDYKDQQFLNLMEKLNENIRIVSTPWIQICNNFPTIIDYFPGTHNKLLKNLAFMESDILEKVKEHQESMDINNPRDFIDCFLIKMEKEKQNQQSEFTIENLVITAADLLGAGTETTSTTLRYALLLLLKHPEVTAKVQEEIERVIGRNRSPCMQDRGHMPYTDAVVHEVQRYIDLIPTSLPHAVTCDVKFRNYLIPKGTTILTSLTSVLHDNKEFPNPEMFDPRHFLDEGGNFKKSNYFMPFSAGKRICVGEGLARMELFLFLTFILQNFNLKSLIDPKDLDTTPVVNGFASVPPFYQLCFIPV
# [8] = target: Heat shock protein HSP 90-alpha (Homo sapiens, UniProt P07900); assay type: functional, organism-based
# HEK293 [9] = test: cells; conditions: Homo sapiens
# HEK293 [10] = test: EBV LMP1 TES2 canonical NF-kB signalling blockers – cell-based, HEK293, luciferase, cherry-pick, dose response (AID 588343); assay type: functional; conditions: Homo sapiens
# Nonstructural protein 1 = Nonstructural protein 1 (Influenza A virus, UniProt Q194T2); assay type: functional, Influenza A virus (A/California/07/2009(H1N1))
# Sequence of Nonstructural protein 1 (Q194T2 whole entry): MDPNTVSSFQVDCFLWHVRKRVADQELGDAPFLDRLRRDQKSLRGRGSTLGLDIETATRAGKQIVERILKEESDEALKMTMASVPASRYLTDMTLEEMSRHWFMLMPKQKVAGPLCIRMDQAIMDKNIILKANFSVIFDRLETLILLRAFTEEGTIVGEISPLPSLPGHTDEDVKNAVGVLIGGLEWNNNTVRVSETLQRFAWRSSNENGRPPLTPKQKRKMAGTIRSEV
# HEK293 [11] = test: cells; conditions: Homo sapiens; remark: listed apart in the source
# Cytochrome P450 2D6 [12] = target: T7, Cytochrome P450 2D6; remark: listed apart in the source
# Cytochrome P450 2C9 = Cytochrome P450 2C9 (Homo sapiens, UniProt P11712)
# Sequence of Cytochrome P450 2C9 (P11712 whole entry): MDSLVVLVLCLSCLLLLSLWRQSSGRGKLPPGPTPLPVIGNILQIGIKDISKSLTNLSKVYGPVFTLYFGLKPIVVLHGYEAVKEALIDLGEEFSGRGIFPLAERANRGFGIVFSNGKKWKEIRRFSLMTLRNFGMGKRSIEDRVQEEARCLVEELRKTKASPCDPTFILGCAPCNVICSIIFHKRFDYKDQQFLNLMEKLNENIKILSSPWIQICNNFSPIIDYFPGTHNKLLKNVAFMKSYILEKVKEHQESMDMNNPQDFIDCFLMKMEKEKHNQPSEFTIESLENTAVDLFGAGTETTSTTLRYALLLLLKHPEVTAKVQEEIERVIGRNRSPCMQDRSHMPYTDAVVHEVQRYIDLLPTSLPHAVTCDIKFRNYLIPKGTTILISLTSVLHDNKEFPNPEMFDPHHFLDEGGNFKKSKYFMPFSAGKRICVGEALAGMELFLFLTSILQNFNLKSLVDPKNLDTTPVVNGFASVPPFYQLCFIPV
# Cytochrome P450 3A4 = Cytochrome P450 3A4 (Homo sapiens, UniProt P08684);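 also: CYP3A4 tested as one member of a cytochrome P450 panel screen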
# Sequence of Cytochrome P450 3A4 (P08684 whole entry): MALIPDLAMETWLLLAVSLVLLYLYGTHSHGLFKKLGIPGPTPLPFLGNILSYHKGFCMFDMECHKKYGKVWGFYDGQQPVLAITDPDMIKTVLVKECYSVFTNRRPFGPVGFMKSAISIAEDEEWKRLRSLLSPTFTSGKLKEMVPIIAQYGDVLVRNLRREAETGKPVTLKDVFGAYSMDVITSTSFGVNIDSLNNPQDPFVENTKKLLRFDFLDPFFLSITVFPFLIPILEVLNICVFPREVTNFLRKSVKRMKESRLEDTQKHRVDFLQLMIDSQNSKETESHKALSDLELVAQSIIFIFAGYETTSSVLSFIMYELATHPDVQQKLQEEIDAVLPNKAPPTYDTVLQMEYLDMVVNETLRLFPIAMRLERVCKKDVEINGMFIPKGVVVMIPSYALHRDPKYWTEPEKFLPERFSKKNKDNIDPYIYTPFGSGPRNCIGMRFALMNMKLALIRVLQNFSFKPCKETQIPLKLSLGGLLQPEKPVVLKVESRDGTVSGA
# [13] = target: Dual specificity protein kinase CLK1 (Homo sapiens, UniProt P49759); test: inhibition of human CLK1 activity – biochemical, cherry-picked samples, selectivity assay for Dyrk1A inhibitor project, dose response (AID 588811)
# Sequence of Dual specificity protein kinase CLK1 (P49759 whole entry): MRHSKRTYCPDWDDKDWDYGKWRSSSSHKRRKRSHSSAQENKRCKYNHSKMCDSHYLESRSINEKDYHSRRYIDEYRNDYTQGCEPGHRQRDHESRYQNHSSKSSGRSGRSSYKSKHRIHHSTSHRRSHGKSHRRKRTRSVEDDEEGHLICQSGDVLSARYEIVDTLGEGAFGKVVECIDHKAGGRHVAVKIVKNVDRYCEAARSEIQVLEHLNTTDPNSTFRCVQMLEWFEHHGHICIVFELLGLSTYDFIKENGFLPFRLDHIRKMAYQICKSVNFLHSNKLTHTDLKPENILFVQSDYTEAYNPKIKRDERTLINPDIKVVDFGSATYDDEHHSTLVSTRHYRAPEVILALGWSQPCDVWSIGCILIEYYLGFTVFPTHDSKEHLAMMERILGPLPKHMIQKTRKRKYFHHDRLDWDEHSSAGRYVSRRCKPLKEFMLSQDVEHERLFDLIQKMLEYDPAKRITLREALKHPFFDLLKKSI
# BJ [14] = test: cells; assay type: functional, cell-based; conditions: Homo sapiens
# [15] = DRD fibroblast viability loss – cell-based, non-viral oncogenic, luminescence, dose response (AID 1934); assay type: functional; conditions: Homo sapiens
# SUMO-activating enzyme = SUMO-activating enzyme (Homo sapiens, UniProt Q9UBT2); test: blockers of UBC9-mediated SUMO conjugation – biochemical, AlphaScreen, SUMOylation inhibitor project, confirmation (AID 2018); assay type: functional
# Sequence of SUMO-activating enzyme (Q9UBE0 whole entry): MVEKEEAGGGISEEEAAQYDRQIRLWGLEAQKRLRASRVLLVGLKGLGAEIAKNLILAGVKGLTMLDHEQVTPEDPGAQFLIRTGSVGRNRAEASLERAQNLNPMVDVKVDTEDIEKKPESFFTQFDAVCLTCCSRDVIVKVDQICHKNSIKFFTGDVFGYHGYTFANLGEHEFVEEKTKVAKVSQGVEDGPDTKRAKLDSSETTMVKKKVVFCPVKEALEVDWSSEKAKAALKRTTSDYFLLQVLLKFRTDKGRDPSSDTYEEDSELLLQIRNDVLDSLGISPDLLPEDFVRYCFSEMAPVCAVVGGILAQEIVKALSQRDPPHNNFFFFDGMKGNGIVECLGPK
# Sequence of SUMO-activating enzyme (Q9UBT2 whole entry): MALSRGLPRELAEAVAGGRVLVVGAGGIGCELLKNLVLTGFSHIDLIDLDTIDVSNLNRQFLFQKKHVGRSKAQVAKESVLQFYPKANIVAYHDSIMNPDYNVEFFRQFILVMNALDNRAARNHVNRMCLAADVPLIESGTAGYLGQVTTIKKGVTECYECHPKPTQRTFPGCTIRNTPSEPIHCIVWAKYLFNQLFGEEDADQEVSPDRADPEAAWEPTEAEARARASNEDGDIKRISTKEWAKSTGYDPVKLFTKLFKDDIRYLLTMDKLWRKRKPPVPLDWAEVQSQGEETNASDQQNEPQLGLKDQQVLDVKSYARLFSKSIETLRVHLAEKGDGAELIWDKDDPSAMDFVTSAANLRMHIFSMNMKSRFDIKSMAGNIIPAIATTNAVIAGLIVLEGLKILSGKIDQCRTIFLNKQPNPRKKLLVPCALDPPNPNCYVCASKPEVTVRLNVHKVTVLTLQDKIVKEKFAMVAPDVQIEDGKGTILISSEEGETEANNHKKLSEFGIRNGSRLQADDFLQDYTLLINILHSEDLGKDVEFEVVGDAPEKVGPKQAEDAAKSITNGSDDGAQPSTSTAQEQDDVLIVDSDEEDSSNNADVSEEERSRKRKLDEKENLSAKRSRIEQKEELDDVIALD
# BJ [16] = test: BJ-TERT fibroblast viability loss – cell-based, RAS-independent, luminescence, dose response (AID 1933); assay type: functional; conditions: Homo sapiens
# BJ [17] = test: BJ-TERT-LT-ST fibroblast viability loss – cell-based, RAS-independent, luminescence, dose response (AID 1935); assay type: functional; conditions: Homo sapiens;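 also: BJ fibroblasts immortalized with TERT plus LT and ST oncogenes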
# Cytochrome P450 1A2 = target: T8, Cytochrome P450 1A2 (Homo sapiens, UniProt P05177);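 also: PubChem cytochrome P450 panel assay, CYP1A2 panel member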
# T8 sequence (P05177 whole entry): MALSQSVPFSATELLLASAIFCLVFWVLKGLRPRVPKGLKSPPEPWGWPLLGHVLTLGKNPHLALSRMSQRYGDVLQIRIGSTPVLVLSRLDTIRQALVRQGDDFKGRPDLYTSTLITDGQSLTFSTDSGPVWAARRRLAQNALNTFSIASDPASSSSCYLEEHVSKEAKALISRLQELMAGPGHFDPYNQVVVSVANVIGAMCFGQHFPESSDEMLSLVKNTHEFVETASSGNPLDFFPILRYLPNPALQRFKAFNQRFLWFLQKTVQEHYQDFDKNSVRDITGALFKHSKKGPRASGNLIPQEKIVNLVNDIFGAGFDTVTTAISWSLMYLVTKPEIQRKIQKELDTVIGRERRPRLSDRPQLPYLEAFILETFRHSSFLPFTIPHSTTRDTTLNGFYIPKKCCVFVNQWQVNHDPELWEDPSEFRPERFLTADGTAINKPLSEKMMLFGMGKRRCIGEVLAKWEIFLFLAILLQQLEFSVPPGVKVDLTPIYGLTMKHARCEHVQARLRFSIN
smiles,measurement,setting,value
O=C(O)COc1ccc2occ(C(=O)c3ccccc3)c2c1,IC50,cells,12.3 µM (active)
same,AC50,[1],6.49 µM (active)
COc1ccc(CCNC(=O)CCn2c(=O)c3ccccc3n(CC(=O)NCC3CCCO3)c2=O)cc1OC (centres undefined),IC50,Coagulation factor XII,> 50 µM (inactive)
COc1ccc(C(=O)Nn2c(C)nc3ccccc3c2=O)cc1,IC50,[2],10.6 µM (active)
same,IC50,Bcl-2-related protein A1,> 20 µM (inactive)
same,IC50,[3],6.37 µM (active)
N=C1/C(=C/c2ccc(O)cc2)C(=O)N=C2SN=C(SCc3ccccc3)N12,IC50,Cysteine protease ATG4B,20.4 µM (inactive)
same,IC50,Phospholipase A2,13.3 µM (active)
O=[N+]([O-])c1ccc(-c2cn3nc(-c4ccccc4)c(-c4ccccc4)nc3n2)cc1,EC50,[4],> 53 µM (inactive)
same,EC50,[5],> 99 µM (inactive)
same,EC50,[6],> 99 µM (inactive)
Cn1c(=O)c2nc(CCCCc3nc4ccccc4[nH]3)[nH]c2n(C)c1=O,AC50,Cytochrome P450 2D6 [7],inconclusive
same,AC50,Cytochrome P450 2C19,inconclusive
CC(=NNC(S)=Nc1ccccc1Cl)c1ccccn1,AC50,[8],3.46 µM (active)
same,EC50,HEK293 [9],> 59.6 µM (inactive)
same,AC50,HEK293 [10],0.0577 µM (active)
same,IC50,Nonstructural protein 1,21.7 µM (active)
same,EC50,HEK293 [11],> 59.6 µM (inactive)
Fc1ccc(NCc2ccccc2F)cc1Cl,AC50,Cytochrome P450 2D6 [12],17.8 µM (inconclusive)
same,AC50,Cytochrome P450 2C9,31.6 µM (inconclusive)
same,IC50,Cysteine protease ATG4B,13.3 µM (active)
same,IC50,Phospholipase A2,8.79 µM (active)
same,AC50,Cytochrome P450 3A4,20 µM (inconclusive)
Clc1ccc(CNc2nccc(-c3ccc4[nH]ncc4c3)n2)cc1Cl,AC50,[13],0.00677 µM (active)
COc1cccc(NC(=O)c2sc(NC(=O)c3ccncc3)nc2C)c1,AC50,[13],22.2 µM (active)
same,AC50,[1],32.4 µM (active)
CCOc1ncccc1C(=O)OCC(=O)Nc1ccc(C(N)=O)cc1,IC50,Coagulation factor XII,> 50 µM (inactive)
Cc1cc2c(ccc3nonc32)[nH]1,AC50,[1],5.79 µM (active)
O=C(N/N=C/c1ccc([N+](=O)[O-])o1)c1cc(-c2ccc(-c3ccccc3)cc2)nc2ccccc12,EC50,BJ [14],4.52 µM (inconclusive)
same,EC50,[15],8.03 µM (inconclusive)
same,IC50,SUMO-activating enzyme,15.4 µM (active)
same,EC50,BJ [16],9.46 µM (inconclusive)
same,EC50,BJ [17],11.2 µM (active)
CCN=C=NCCCN(C)C,AC50,Cytochrome P450 1A2,5.01 µM (inconclusive)
same,AC50,Cytochrome P450 2D6 [7],inconclusive
Clc1ccc(CNc2ncncc2-c2ccc3c(c2)OCO3)cc1,AC50,[13],10 µM (active)
COc1ccc(N(C(=O)c2snc(C(N)=O)c2N)C(C(=O)NC2CCCC2)c2ccco2)cc1OC (centres undefined),IC50,[2],12 µM (active)
same,IC50,Bcl-2-related protein A1,> 20 µM (inactive)
same,IC50,[3],7.43 µM (active)
